Measured values reported in ChEMBL document CHEMBL4316589, “Attachment of a 5-nitrofuroyl moiety to spirocyclic piperidines produces non-toxic nitrofurans that are efficacious in vitro against multidrug-resistant Mycobacterium tuberculosis” (Eur J Med Chem, 2019).
Converted amounts (≈) assume the structure as drawn.

Columns and labels:
[1] = tested on: Mycobacterium tuberculosis; experiment: Antimycobacterial activity against drug-sensitive Mycobacterium tuberculosis H37Rv measured after 7 days by resazurin dye-based assay; assay type: functional; conditions: 168 h
[2] = Toxicity in po dosed C57BL6 mouse administered via metal gavage measured daily over 14 days; assay type: organism-based; conditions: in vivo
[3] = tested on: Enterococcus faecium; experiment: Antibacterial activity against Enterococcus faecium assessed as bacterial growth inhibition zone diameter at 5 ug after 18 hrs by Kirby-Bauer disk diffusion method; assay type: functional; conditions: read-out: DIZ
[4] = tested on: ARPE-19; experiment: Cytotoxicity against human ARPE19 cells assessed as effect on cell viability at 10 to 100 uM after 48 hrs in normoxic condition by MTT assay; assay type: cell-based; conditions: arpe-19, 48 h
[5] = Toxicity in C57BL6 mouse assessed as mortality at 400 mg/kg, po administered via metal gavage measured daily over 14 days; assay type: organism-based; conditions: in vivo, 336 h
[6] = Toxicity in C57BL6 mouse assessed as mortality at 900 mg/kg, po administered via metal gavage measured daily over 14 days; assay type: organism-based; conditions: in vivo, 336 h
[7] = tested on: Klebsiella pneumoniae; experiment: Antibacterial activity against Klebsiella pneumoniae assessed as bacterial growth inhibition zone diameter at 5 ug after 18 hrs by Kirby-Bauer disk diffusion method; assay type: functional; conditions: read-out: DIZ
[8] = tested on: Staphylococcus aureus; experiment: Antibacterial activity against Staphylococcus aureus assessed as bacterial growth inhibition zone diameter at 5 ug after 18 hrs by Kirby-Bauer disk diffusion method; assay type: functional; conditions: read-out: DIZ
[9] = tested on: Acinetobacter baumannii; experiment: Antibacterial activity against Acinetobacter baumannii assessed as bacterial growth inhibition zone diameter at 5 ug after 18 hrs by Kirby-Bauer disk diffusion method; assay type: functional; conditions: read-out: DIZ
[10] = tested on: Pseudomonas aeruginosa; experiment: Antibacterial activity against Pseudomonas aeruginosa assessed as bacterial growth inhibition zone diameter at 5 ug after 18 hrs by Kirby-Bauer disk diffusion method; assay type: functional; conditions: read-out: DIZ
[11] = tested on: Klebsiella aerogenes; experiment: Antibacterial activity against Enterobacter aerogenes assessed as bacterial growth inhibition zone diameter at 5 ug after 18 hrs by Kirby-Bauer disk diffusion method; assay type: functional; conditions: read-out: DIZ
[12] = tested on: ARPE-19; experiment: Cytotoxicity against human ARPE19 cells assessed as effect on cell viability at 100 uM after 48 hrs in normoxic condition by MTT assay; assay type: cell-based; conditions: arpe-19, 48 h

## O=C(c1ccc([N+](=O)[O-])o1)N1CCC2(CC1)CC(Cc1ccc(F)cc1)CCO2 (centres undefined)
[1]
  MIC: 12.5 µg/mL (≈ 31.1 µM)

## O=C(c1ccc([N+](=O)[O-])o1)N1CCC2(CC1)CC(OCC1CC1)CCO2 (centres undefined)
[1]
  MIC: 25 µg/mL (≈ 68.6 µM)

## CCOC1CCOC2(CCN(C(=O)c3ccc([N+](=O)[O-])o3)CC2)C1 (centres undefined)
[1]
  MIC: 50 µg/mL (≈ 148 µM)

## O=C(c1ccc([N+](=O)[O-])o1)N1CCC2(CC1)CC(NS(=O)(=O)c1ccccc1F)CCO2 (centres undefined)
[1]
  MIC: 50 µg/mL (≈ 107 µM)

## O=C(c1ccc([N+](=O)[O-])o1)N1CCC2(CC1)CC(NS(=O)(=O)c1ccc(Br)cc1)CCO2 (centres undefined)
[1]
  MIC: 25 µg/mL (≈ 47.3 µM)

## O=C(c1ccc([N+](=O)[O-])o1)N1CCC2(CC1)CC(Cc1nc(-c3cccnc3)no1)CCO2 (centres undefined)
[1]
  MIC: 1.6 µg/mL (≈ 3.53 µM)
[2]; C57BL6, mouse
  LD50 at 336 h: 617 mg/kg
[2]; mouse, 336 h
  LD16: 198 mg/kg
  LD84: 787.5 mg/kg
  LD100: 900 mg/kg
[3]
  zone of inhibition at 5 µg/disc: 0 mm
[4]
  Activity: Non-Toxic
[5]
  Activity: Non-Toxic
[6]
  Activity: Toxic
[7]
  zone of inhibition at 5 µg/disc: 0 mm
[8]
  zone of inhibition at 5 µg/disc: 0 mm
[9]
  zone of inhibition at 5 µg/disc: 0 mm
[10]
  zone of inhibition at 5 µg/disc: 0 mm
[11]
  zone of inhibition at 5 µg/disc: 0 mm

## CS(=O)(=O)NC1CCOC2(CCN(C(=O)c3ccc([N+](=O)[O-])o3)CC2)C1 (centres undefined)
[1]
  MIC: > 100 µg/mL

## O=C(O)c1cn(C2CC2)c2cc(N3CCNCC3)c(F)cc2c1=O [CIPROFLOXACIN]
[3]
  zone of inhibition at 5 µg/disc: 23 mm
[7]
  zone of inhibition at 5 µg/disc: 25 mm
[8]
  zone of inhibition at 5 µg/disc: 23 mm
[9]
  zone of inhibition at 5 µg/disc: 30 mm
[10]
  zone of inhibition at 5 µg/disc: 23 mm
[11]
  zone of inhibition at 5 µg/disc: 25 mm

## CN(Cc1ccccc1)C(=O)CC1CCOC2(CCN(C(=O)c3ccc([N+](=O)[O-])o3)CC2)C1 (centres undefined)
[1]
  MIC: 12.5 µg/mL (≈ 27.4 µM)

## COCCc1noc(CC2CCOC3(CCN(C(=O)c4ccc([N+](=O)[O-])o4)CC3)C2)n1 (centres undefined)
[1]
  MIC: 6.2 µg/mL (≈ 14.3 µM)
[4]
  Activity: Non-Toxic

## Cc1ccc(CC2CCOC3(CCN(C(=O)c4ccc([N+](=O)[O-])o4)CC3)C2)cc1 (centres undefined)
[1]
  MIC: 3.1 µg/mL (≈ 7.78 µM)
[12]
  Activity: Toxic

## COc1ccc(CC2CCOC3(CCN(C(=O)c4ccc([N+](=O)[O-])o4)CC3)C2)cc1 (centres undefined)
[1]
  MIC: 3.1 µg/mL (≈ 7.48 µM)
[12]
  Activity: Toxic

## O=C(c1ccc([N+](=O)[O-])o1)N1CCC2(CC1)CC(Cc1nc(C3CC3)no1)CCO2 (centres undefined)
[1]
  MIC: 3.1 µg/mL (≈ 7.44 µM)
[4]
  Activity: Non-Toxic

## COc1ccc(S(=O)(=O)NC2CCOC3(CCN(C(=O)c4ccc([N+](=O)[O-])o4)CC3)C2)cc1 (centres undefined)
[1]
  MIC: 50 µg/mL (≈ 104 µM)

## O=C(c1ccc([N+](=O)[O-])o1)N1CCC2(CCCCO2)CC1
[1]
  MIC: 3.1 µg/mL (≈ 10.5 µM)
[4]
  Activity: Non-Toxic

## CNC(=O)CC1CCOC2(CCN(C(=O)c3ccc([N+](=O)[O-])o3)CC2)C1 (centres undefined)
[1]
  MIC: > 100 µg/mL

## Cc1cccc(S(=O)(=O)NC2CCOC3(CCN(C(=O)c4ccc([N+](=O)[O-])o4)CC3)C2)c1 (centres undefined)
[1]
  MIC: 50 µg/mL (≈ 108 µM)

## O=C(c1ccc([N+](=O)[O-])o1)N1CCC2(CC1)CC(N1CCOCC1)CCO2 (centres undefined)
[1]
  MIC: > 100 µg/mL

## O=C(c1ccc([N+](=O)[O-])o1)N1CCC2(CC1)CC(NS(=O)(=O)c1ccccc1)CCO2 (centres undefined)
[1]
  MIC: 50 µg/mL (≈ 111 µM)

## CC(C)(C)OC(=O)NC1CCOC2(CCN(C(=O)c3ccc([N+](=O)[O-])o3)CC2)C1 (centres undefined)
[1]
  MIC: 25 µg/mL (≈ 61.1 µM)

## O=C(c1ccc([N+](=O)[O-])o1)N1CCC2(CC1)CC(NS(=O)(=O)c1ccc(F)c(Cl)c1)CCO2 (centres undefined)
[1]
  MIC: 25 µg/mL (≈ 49.8 µM)

## Cl.NC1CCOC2(CCN(C(=O)c3ccc([N+](=O)[O-])o3)CC2)C1 (centres undefined)
[1]
  MIC: > 100 µg/mL

## O=C(c1ccc([N+](=O)[O-])o1)N1CCC2(CC1)CC(Oc1ccncc1)CCO2 (centres undefined)
[1]
  MIC: 25 µg/mL (≈ 64.5 µM)

## O=C(c1ccc([N+](=O)[O-])o1)N1CCC2(CC1)CC(NS(=O)(=O)c1ccc(F)cc1)CCO2 (centres undefined)
[1]
  MIC: 50 µg/mL (≈ 107 µM)

## O=C(c1ccc([N+](=O)[O-])o1)N1CCC2(CC1)CC(OCc1ccc(F)cc1)CCO2 (centres undefined)
[1]
  MIC: 3.1 µg/mL (≈ 7.41 µM)
[4]
  Activity: Non-Toxic
